Results published in article PMC3516535, “Rhesus Macaque Theta Defensins Suppress Inflammatory Cytokines and Enhance Survival in Mouse Models of Bacteremic Sepsis” (PLoS ONE, 2012).
Read-outs that look alike come from different tables or passages of the source. Bridge positions count the residues as written; N and C are the ends. Peptide text beside a SMILES is read from it.

Legend:
[1] = test system: human peripheral blood leukocytes (PBL); experiment: Cytokine/chemokine release by TLR agonist-stimulated peripheral blood leukocytes (Milliplex); format: cell-based
Experimental: EDTA-anticoagulated blood was obtained from healthy adult volunteers as approved by the Institutional Review Board at USC (protocol # HS-09-00280). Peripheral blood leukocytes (PBL) were harvested from 10–15 ml whole blood after centrifugation at 200× g. Cells were washed twice with 3–5 ml of RPMI, counted with a hemocytometer, and suspended to a cell density of 5×10^5 cells/ml in RPMI +5% human EDTA-plasma. PBLs were stimulated for 4 h with either 0.9 µg/ml ssRNA40, 30 ng/ml S. typhimurium flagellin, 3.3×10^7 CFU/ml heat-killed L. monocytogenes (HKLM), 3 ng/ml E. coli K12 LPS, or 100 CFU/ml of the clinical E. coli isolate. Cytokines/chemokines were quantified using a Milliplex MAP kit on a BioRad Bioplex HTF Luminex reader at the Beckman Center for Immune Monitoring at USC-Norris Cancer Center.

[2] = test system: human EDTA-anti-coagulated blood diluted 1∶10; experiment: TNF release assay in stimulated diluted whole blood (ELISA); format: cell-based
THP-1 monocytic cells = experiment: TNF release assay in LPS-stimulated THP-1 monocytes (ELISA); format: cell-based, human; conditions: THP-1 in RPMI +5% human EDTA-plasma, 1 ng/ml K12 LPS, 4 h, N = 2
Experimental: THP-1 monocytic cells (ATCC, Manassas, VA) were grown and maintained in RPMI-1640 medium containing 10% fetal bovine serum and penicillin/streptomycin. Cells were harvested by centrifugation, washed with RPMI-1640 medium and suspended at 5×10^5 cells/ml in fresh medium containing 5% human EDTA plasma.
Peptides (RTDs 1–5, human neutrophil α-defensins) were aliquoted into wells of pyrogen-free 12- or 24-well plates wherein final peptide concentrations were 0–10 µg/ml. Wells were inoculated with 1×10^5 CFU/ml S. aureus or 100 CFU/ml E. coli, or 1–3 ng/ml of E. coli K12 LPS. Samples (5–10 µl) containing peptide or bacteria/LPS were placed on opposite sides of the plate well. Mixing commenced with the addition of 0.5 to 2.0 ml of 1∶10 diluted blood, PBLs (5×10^5/ml), or THP-1 cells (2–5×10^5 cells/ml). Plates were incubated at 37°C in 5% CO2 for 4 h with gentle mixing. […] Incubation mixtures were centrifuged at 200× g for 10 min at 22°C and supernatants were clarified by centrifugation at 23,000× g for 15 min at 4°C. Supernatant TNF was quantified by sandwich ELISA (OptEIA II; BD Biosciences; Hu TNF-α, Invitrogen) per suppliers’ directions, using a SpectraMax Plate Reader.

[3] = LPS neutralization assay (Limulus amoebocyte lysate); format: biochemical, Escherichia coli; conditions: LAL assay, 0–10 µg/ml, N = 4
Experimental: To each sample 25 µl of Limulus amoebocyte lysate (LAL; Lonza) was added and incubated for 10 min at 37°C after which 100 µl of LAL substrate was added and incubated for 6 min at 37°C. Reactions were quenched with 50 µl of 25% HOAc and read spectrophotometrically at 405 nm.

E. coli = experiment: Killing of E. coli during pre-incubation with peptide; format: cell-based, Escherichia coli; conditions: 100 CFU/ml E. coli, 10 µg/ml peptide in RPMI
[4] = test system: leukocytes / target cells; experiment: Cytotoxicity by trypan blue staining in the in vitro incubations; format: cell-based, human; conditions: TNF release incubations in blood, 4 h
BALB/c mice = experiment: Mouse exposure study, repeated subcutaneous injection; format: in vivo
Experimental: Twenty four h after the fourth injection, mice were euthanized with CO2, blood was collected by cardiac puncture, and tissues were harvested and fixed in 10% buffered formalin. Histopathologic examination was performed on sections of heart, lung, liver, spleen, kidney, and injection site skin and subcutaneous tissue. A basic metabolic panel (UC Davis-William R. Pritchard Veterinary Medical Teaching Hospital) was performed on serum samples obtained by cardiac puncture at the time of euthanasia.

[5] = test system: BALB/c mice with CLP polymicrobial sepsis; experiment: Cecal-ligation/puncture (CLP) induced sepsis; format: in vivo, mouse
Experimental: Polymicrobial peritonitis was induced in 6–8 week old BALB/c mice by CLP as described, [21]. Briefly, laparotomy was performed on anesthetized animals and the cecum was ligated below the ileocecal valve. Both walls of the cecum were punctured twice with an 18-gauge needle, and the surgical wound closed with 3–0 nylon suture. All animals fully recovered within 60 min. […] Animal health was evaluated daily for 28 days. As above, mice were euthanized when they became moribund.

[6] = human whole blood, data not shown
[7] = rat whole blood, data not shown
[8] = mouse whole blood, data not shown
[9] = test system: BALB/c mice challenged with E. coli K12; conditions: 8×10^8 CFU E. coli K12 i.p., single s.c. dose 5 mg/kg at challenge, n = 13
DA rats = test system: DA rats; set-up: method as in Schaal et. al, manuscript in preparation; conditions: repetitive (8–15 injections) s.c. challenge, after 8 weeks; ref Schaal et. al, manuscript in preparation; cited from earlier work
[10] = test system: SARS-coronavirus (SARS-CoV); conditions: cited from earlier work
host cells = conditions: cited from earlier work
From the text: The only detected tissue effect as ...

in vitro = conditions: human, EDTA plasma
[11] = ref D. Tran & M.E. Selsted, unpublished data, cited from earlier work
[12] = PBL stimulated 4 h with 0.9 µg/ml ssRNA40 (TLR8 agonist), simultaneous addition of 10 µg/ml peptide

## CC[C@H](C)[C@@H]1NC(=O)[C@@H]2CSSC[C@H](NC(=O)[C@H](CCCNC(=N)N)NC(=O)[C@@H]3CSSC[C@H](NC1=O)C(=O)N[C@@H]([C@@H](C)O)C(=O)N[C@@H](CCCNC(=N)N)C(=O)NCC(=O)N[C@@H](Cc1ccccc1)C(=O)N3)C(=O)N[C@@H](CC(C)C)C(=O)N[C@H]1CSSC[C@H](NC(=O)[C@H](C(C)C)NC(=O)CNC(=O)[C@H](CCCNC(=N)N)NC(=O)[C@H](CCCNC(=N)N)NC1=O)C(=O)N[C@@H](CCCNC(=N)N)C(=O)N2 [RTD-1] (cyclo(GFCRCLCRRGVCRCICTR); disulfide 3-16, 5-14, 7-12)
[1]; HKLM-stimulated PBL, 10 µg/ml peptide, 4 h
  effect on induced levels of chemokines CXCL8 (IL-8), CCL2 (MCP-1), CCL3 (MIP-1α), CCL4 (MIP-1β): no suppression
[1]; [12]
  suppression of supernatant IL-1β level: 95%
  suppression of supernatant IL-8 level: 68%
[1]; RTD-1 treatment of PBLs
  effect on VEGF-A: reproducible elevation
[1]; unstimulated leukocytes, 10 µg/ml peptide alone, exception VEGF and to a lesser degree CCL2 (MCP-1)
  effect of peptide alone on cytokine/chemokine release: little effect
[2]; E. coli pre-treated with 10 µg/ml peptide for 0–120 min before addition of blood, 4 h, all time-points
  blockade of TNF release: complete blockade
[2]; E. coli-stimulated blood, 4 h, N = 2
  hierarchy of anti-TNF potencies: RTD-5>2>1>4>3
[2]; blood incubated 4 h with peptide alone, no stimulus
  effect of peptide alone on TNF release: no effect
THP-1 monocytic cells
  hierarchy of anti-TNF potencies: RTD-5>2>1>4>3
[3]; 10 min 37°C
  effectiveness in neutralizing E. coli LPS relative to polymyxin B (fold less effective): 50–100 fold
[3]
  neutralization of E. coli LPS: ineffective in neutralizing
E. coli
  time to killing of E. coli (absence of viable bacteria): ≤ 30 min
[4]
  cytotoxicity (trypan blue staining of leukocytes): no cytotoxicity was detected
BALB/c mice; 40 mg/kg s.c. daily, at day 4
  incidence of focal, non-erythematous swelling at injection site: 2/4
BALB/c mice; 160 mg/kg s.c. daily, by day 3
  incidence of focal, non-erythematous swelling at injection site: 4/4
BALB/c mice; after 4 day dosing regimen, all peptide levels tested
  histopathology of lungs, kidneys, heart, liver, spleen: no abnormalities
BALB/c mice; daily s.c. injections for 4 days, 2.5–160 mg/kg, basic metabolic panel
  serum chemistries: indistinguishable from saline-treated controls
BALB/c mice; daily s.c. injections for 4 days, up to 160 mg/kg (highest dose tested), groups of four
  acute toxicity: no acute toxicity was observed
BALB/c mice; multiple injections of 2.5 or 10 mg/kg
  lobular panniculitis with fat necrosis at injection site: absent
[5]; single i.v. dose administered 4 h after CLP surgery, 28 days
  long term survival: 10 of 11
[5]; single i.v. dose delayed until 24 h post CLP, through end of trial
  recovery / survival: 4 of 5
[6]
  time highly stable in whole blood: at least 24 h
[7]
  time highly stable in whole blood: at least 24 h
[8]
  time highly stable in whole blood: at least 24 h
[9]
  survival: significantly improved survival
DA rats
  anti-RTD-1 antibody: no anti-RTD-1 antibody
[10]
  virus neutralization in vitro: did not neutralize the virus
Host cells
  toxicity to host cells in vitro: non-toxic
In vitro
  remaining at 72 h, 50 µg/ml: 93%
[11]; 100°C, 30 min
  stability to heating: completely stable
[11]; pH 2.0
  stability to extended storage at pH 2.0: completely stable
